Assay results as given in ChEMBL document CHEMBL1201862, “PubChem BioAssay data set” (2004).
Activity calls are given as the source filed them.

How the values were obtained:
[1] = target: T1, Oxysterols receptor LXR-beta (Homo sapiens, UniProt P55055); experiment: LXR agonists, Gal4 luciferase reporter, dose response, counter-screen for ssDAF-12 agonist project, cell-based, luminescence, HEK293, S. stercoralis campaign (AID 720737); type: functional; settings: read-out: IC50 (the source's name)
T1 sequence (P55055 whole entry): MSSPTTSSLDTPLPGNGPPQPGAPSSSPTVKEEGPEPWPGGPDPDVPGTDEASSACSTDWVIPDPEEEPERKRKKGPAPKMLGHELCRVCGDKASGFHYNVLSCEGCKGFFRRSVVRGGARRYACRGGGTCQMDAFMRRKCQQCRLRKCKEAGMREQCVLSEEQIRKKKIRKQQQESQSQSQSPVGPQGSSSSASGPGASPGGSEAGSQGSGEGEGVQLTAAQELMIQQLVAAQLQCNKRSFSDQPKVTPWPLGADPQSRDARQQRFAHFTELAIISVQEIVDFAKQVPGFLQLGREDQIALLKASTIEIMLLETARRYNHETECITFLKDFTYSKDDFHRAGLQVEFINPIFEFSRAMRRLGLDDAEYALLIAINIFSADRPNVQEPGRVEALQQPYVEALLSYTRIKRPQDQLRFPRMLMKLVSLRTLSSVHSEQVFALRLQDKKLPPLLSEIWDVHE

[2] = Luminescence-based cell-based high throughput dose response assay to identify activators of the DAF-12 from the parasite S. stercoralis (ssDAF-12).; type: functional
[3] = glucagon-like peptide-1 release potency in STC-1, concentration-response, half-maximal inhibitory concentration in the STC-1 line (AID 1117345); type: functional, cell-based
[4] = Potency on glucagon-like peptide 1 release, dose-response in NCI-H716 cell line, half maximal inhibitory concentration (AID 1117344); type: functional, cell-based
[5] = target: RNA-editing ligase 1, mitochondrial (Trypanosoma brucei brucei, UniProt P86926); experiment: inhibition of trypanosome RNA editing ligase – biochemical, fluorescence, Trypanosoma brucei, dose response (AID 1117295); type: functional
[6] = target: NAD-dependent protein deacylase sirtuin-5, mitochondrial (Homo sapiens, UniProt Q9NXA8); experiment: sirtuin-5 deacylation blockers, concentration series – biochemical, fluorescence imaging, cherry-pick, set 5, dose response (AID 720591);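 also: desuccinylation of succinyl peptide AMC substrate read as fluorescence after trypsin release; potency of inhibitors that lower fluorescence and may act on trypsin instead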
[7] = Dd2 parasite growth inhibition in erythrocytes – SYBR Green, dry powder samples, set 9, dose response (AID 1159568); type: functional, cell-based
[8] = viability loss in A549 lung cells – cell-based, 24 h, CellTiter-Glo luminescence, cherry-picks, cytotoxicity control, dose response (AID 1053115); type: functional; settings: A549, 24 h
[9] = target: Diphosphomevalonate decarboxylase (Streptococcus pneumoniae serotype 2 (strain D39 / NCTC 7466), UniProt Q9FD53); experiment: diphosphomevalonate decarboxylase inhibitor confirmation – biochemical, cuvette format, coupled NADH fluorescence (AID 1028); type: functional
[10] = M. tuberculosis growth inhibition, HTS (AID 449762); type: functional

Sequence of RNA-editing ligase 1, mitochondrial (P86926 whole entry): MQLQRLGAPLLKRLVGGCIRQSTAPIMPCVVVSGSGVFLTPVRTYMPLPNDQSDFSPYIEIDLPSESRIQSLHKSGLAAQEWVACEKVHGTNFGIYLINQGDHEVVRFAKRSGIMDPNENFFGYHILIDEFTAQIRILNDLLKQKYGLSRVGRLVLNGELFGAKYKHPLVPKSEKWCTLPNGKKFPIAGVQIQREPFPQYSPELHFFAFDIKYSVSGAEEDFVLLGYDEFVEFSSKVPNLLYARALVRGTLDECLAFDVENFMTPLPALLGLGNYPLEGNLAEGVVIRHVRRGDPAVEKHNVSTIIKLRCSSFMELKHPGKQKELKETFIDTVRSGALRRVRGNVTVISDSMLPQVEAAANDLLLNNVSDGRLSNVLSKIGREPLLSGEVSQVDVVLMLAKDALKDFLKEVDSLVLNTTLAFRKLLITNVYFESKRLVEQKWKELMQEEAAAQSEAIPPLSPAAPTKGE
Sequence of Diphosphomevalonate decarboxylase (Q9FD53 whole entry): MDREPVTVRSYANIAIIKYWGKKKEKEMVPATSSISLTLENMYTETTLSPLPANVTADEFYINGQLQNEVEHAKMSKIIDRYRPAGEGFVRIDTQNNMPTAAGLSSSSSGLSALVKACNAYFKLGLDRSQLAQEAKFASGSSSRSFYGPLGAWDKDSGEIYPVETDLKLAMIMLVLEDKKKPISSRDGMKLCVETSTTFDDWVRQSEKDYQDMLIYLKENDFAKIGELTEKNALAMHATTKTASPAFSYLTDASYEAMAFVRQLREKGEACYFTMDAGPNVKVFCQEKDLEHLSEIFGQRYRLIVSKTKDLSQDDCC
Sequence of NAD-dependent protein deacylase sirtuin-5, mitochondrial (Q9NXA8 whole entry): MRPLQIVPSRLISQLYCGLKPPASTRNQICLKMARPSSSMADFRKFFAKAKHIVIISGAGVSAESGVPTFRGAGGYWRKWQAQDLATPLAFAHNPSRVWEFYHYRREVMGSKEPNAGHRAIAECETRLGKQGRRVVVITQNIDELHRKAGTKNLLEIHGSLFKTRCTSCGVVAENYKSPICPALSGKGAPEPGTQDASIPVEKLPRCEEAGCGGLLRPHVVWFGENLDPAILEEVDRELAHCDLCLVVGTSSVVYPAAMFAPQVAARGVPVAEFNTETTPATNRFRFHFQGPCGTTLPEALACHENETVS

Structure (SMILES): Oc1[nH]ncc1/C=N/c1ccc(Oc2ccccc2)cc1
- EC50 [1]: > 67.5 µM (inactive)
- IC50 [2]: > 67.5 µM (inactive)

Structure (SMILES): O=C(Nc1cccc2c(=O)cc(-c3nnn[nH]3)oc12)c1ccc(OCCCCc2ccccc2)cc1
- IC50 [3]: > 40 µM (inactive)
- IC50 [4]: > 40 µM (inactive)

Structure (SMILES): O=C(O)c1ccnc(C(=O)O)c1
- IC50 [5]: > 96.6 µM (inactive)

Structure (SMILES): O=C(O)CCNC(=O)c1ccc(NC(=O)C(c2ccccc2)c2ccccc2)cc1
- AC50 [6]: 10.6 µM (active)

Structure (SMILES): O=C(Nc1ccccc1F)N1CCCCN2[C@H](CO)[C@@H](c3ccc(/C=C/c4ccccc4)cc3)[C@H]2C1
- AC50 [7]: 1.72 µM (active)

Structure (SMILES): OC[C@@H]1Nc2ccc(-c3ccccc3)cc2[C@@H]2[C@H]1CCN2Cc1ccc(F)cc1
- AC50 [8]: > 60 µM (inactive)

Structure (SMILES): CN(C)C(=O)c1ccc(-n2sc3ccccc3c2=O)cc1
- IC50 [9]: 21.9 µM (active)

Structure (SMILES): C/C(CC(=O)Nc1ccc(C)c(Cl)c1)=N\NC(=O)Cc1cnc(N)s1
- IC50 [10]: > 100 µM (active)
